The nature of this assay: Trained sensory panel rating of sweetness intensity and bitterness intensity of glycoside solutions. In kind it is in vivo, human. To be noted: panel average; for Bitterness: scale 1-15 (caffeine standards); for Sweetness: scale 1-15 (sucrose standards). How it is done:
A 20 person sensory panel was trained to scale sweetness and bitterness. Reference tasting standards were prepared by dissolving respective standard material (sucrose for sweetness and caffeine for bitterness) into reverse osmosis water according to the scale values shown in Table 1 below.
The trained sensory panel evaluated pure and blended solutions of rebaudioside A, rebaudioside B, and rebaudioside D at ratios and concentrations shown in the tables and in FIGS. 1-4. Solutions were made in Evian® water. All solutions were heated to 47° C. for 10 minutes to ensure that all the glycoside material was completely dissolved. The solutions were allowed to cool to room temperature before serving to the panelists. Each solution was given a random 3-digit code and was served to the panelists in random order. Panelists dispensed 1 mL of each solution into their mouths from a pipette. The panelists were then asked to rate the “sweetness intensity” and “bitterness intensity” of the solutions and mark their responses on an un-anchored, 15 cm line ballot. The length of the line directly corresponded to the scale values (1-15) on which the participants were trained.
In order to prepare the panelists' palates, a control solution of commercial rebiana (300 ppm) was the first sample each panelist tasted during a sitting. In between testing samples, the panelists cleansed their palates with water and apple slices. The panelists also waited 5 minutes between each sample. The panelists' responses were measured, compiled, and averaged for each sample.
The figures show the concentration of the blend tested (ppm) as well as the ratio of one glycoside to another in the blend as a percentage. Each blend's sweetness and bitterness was measured by the trained panel. The blend's sweetness is measured as SEV.
Each blend was then compared to an isosweet concentration of the pure glycosides. This value represents the concentration of the pure glycoside needed to achieve the SEV value measured for the blend. Thus, if the value is greater than that of the blend, then a larger concentration of the pure glycoside would be needed to achieve the same sweetness as achieved by the blend (at the lower dosage). The tables also include an isosweet bitterness value for each pure glycoside. This value represents the intensity of bitterness measured for that concentration of pure glycoside. The concentration of the isosweet solution of rebaudioside A, rebaudioside B, or rebaudioside D and the bitterness of the isosweet solutions were calculated by a fit of the pure component sensory response (table 2) to standard psycho-sensory models.

Take `C=C1C[C@@]23CC[C@H]4[C@@](C)(CCC[C@@]4(C)C(=O)O[C@@H]4O[C@H](CO)[C@@H](O)[C@H](O)[C@H]4O)[C@@H]2CC[C@]1(O[C@@H]1O[C@H](CO)[C@@H](O)[C@H](O[C@@H]2O[C@H](CO)[C@@H](O)[C@H](O)[C@H]2O)[C@H]1O[C@@H]1O[C@H](CO)[C@@H](O)[C@H](O)[C@H]1O)C3` [Reb A, Rebaudioside A]: the Bitterness reads like this: (114 ppm in Evian water) 4.2; (229 ppm in Evian water) 5.3; (343 ppm in Evian water) 6.6; (457 ppm in Evian water) 7.0; (571 ppm in Evian water) 8.4; (800 ppm in Evian water) 9.0. The Sweetness is, setting by setting: (114 ppm in Evian water) 3.1; (229 ppm in Evian water) 5.7; (343 ppm in Evian water) 7.4; (457 ppm in Evian water) 8.4; (571 ppm in Evian water) 9.2; (800 ppm in Evian water) 10.1.

As for `C=C1C[C@@]23CC[C@H]4[C@@](C)(CCC[C@@]4(C)C(=O)O)[C@@H]2CC[C@]1(O[C@@H]1O[C@H](CO)[C@@H](O)[C@H](O[C@@H]2O[C@H](CO)[C@@H](O)[C@H](O)[C@H]2O)[C@H]1O[C@@H]1O[C@H](CO)[C@@H](O)[C@H](O)[C@H]1O)C3` [Reb B, Rebaudioside B], the Bitterness is, setting by setting: (57 ppm in Evian water) 3.9; (114 ppm in Evian water) 4.2; (171 ppm in Evian water) 4.3; (286 ppm in Evian water) 5.0; (343 ppm in Evian water) 5.1; (400 ppm in Evian water) 5.8. In addition, the Sweetness reads like this: (57 ppm in Evian water) 1.8; (114 ppm in Evian water) 2.7; (171 ppm in Evian water) 3.6; (286 ppm in Evian water) 5.8; (343 ppm in Evian water) 6.5; (400 ppm in Evian water) 7.6.

Source of the values: US20130309389A1, “GLYCOSIDE BLENDS” (CARGILL, INCORPORATED, priority 2010, published 2013).
